Source: US11083725B2 (priority 2014, dated 2021)

Tested on: NHBE cells
Assay: Biolog metabolic array: substrate use by NHBE cells with or without CA09 infection
Format: cell-based, human
Settings: for Substrate use, 590 nm absorbance normalized to zero hour, 1 hr: Biolog PMM2, 1 hr; for Substrate use, 590 nm absorbance normalized to zero hour, 5 hr: Biolog PMM2, 5 hr; for Substrate use, 590 nm absorbance normalized to zero hour, 7 hr: Biolog PMM2, 7 hr
[1] = Control (uninfected) NHBE cells
[2] = Virus (CA09-infected NHBE cells, MOI 1)
[3] = Virus: CA09-infected NHBE cells, MOI 1, Biolog PMM2
[4] = Virus (CA09-infected, MOI 1) NHBE cells

SMILES | 590 nm absorbance normalized to zero hour (substrate use), 1 hr [1] | 590 nm absorbance normalized to zero hour (substrate use), 2 hr [1] | 590 nm absorbance normalized to zero hour (substrate use), 3 hr [1] | 590 nm absorbance normalized to zero hour (substrate use), 4 hr [1] | 590 nm absorbance normalized to zero hour (substrate use), 6 hr [1] | 590 nm absorbance normalized to zero hour (substrate use), 8 hr [1] | 590 nm absorbance normalized to zero hour (substrate use), 9 hr [1] | 590 nm absorbance normalized to zero hour (substrate use), 10 hr [1] | 590 nm absorbance normalized to zero hour (substrate use), 11 hr [1] | Substrate use, 590 nm absorbance normalized to zero hour, 1 hr [1] | Substrate use, 590 nm absorbance normalized to zero hour, 5 hr [1] | Substrate use, 590 nm absorbance normalized to zero hour, 7 hr [1] | 590 nm absorbance normalized to zero hour (substrate use), 1 hr [3] | 590 nm absorbance normalized to zero hour (substrate use), 2 hr [3] | 590 nm absorbance normalized to zero hour (substrate use), 3 hr [3] | 590 nm absorbance normalized to zero hour (substrate use), 4 hr [3] | 590 nm absorbance normalized to zero hour (substrate use), 5 hr [3] | 590 nm absorbance normalized to zero hour (substrate use), 6 hr [3] | 590 nm absorbance normalized to zero hour (substrate use), 7 hr [3] | 590 nm absorbance normalized to zero hour (substrate use), 8 hr [3] | further results
CCCCCC(=O)O [Hexanoic Acid] | 1.35 | 1.47 | 2.74 | 2.80 | 1.04 | 4.11 | 4.10 | 4.13 | 3.16 | 1.35 | 1.18 | 4.15 | 0.25 | 0.28 | 0.31 | 0.33 | 0.36 | 0.37 | 0.37 | 0.38 | 590 nm absorbance normalized to zero hour (substrate use), 1 hr [2]: 0.25; 590 nm absorbance normalized to zero hour (substrate use), 2 hr [2]: 0.28; 590 nm absorbance normalized to zero hour (substrate use), 3 hr [2]: 0.31; 590 nm absorbance normalized to zero hour (substrate use), 4 hr [2]: 0.33; 590 nm absorbance normalized to zero hour (substrate use), 5 hr [2]: 0.36; 590 nm absorbance normalized to zero hour (substrate use), 6 hr [2]: 0.37; 590 nm absorbance normalized to zero hour (substrate use), 7 hr [2]: 0.37; 590 nm absorbance normalized to zero hour (substrate use), 8 hr [2]: 0.38; 590 nm absorbance normalized to zero hour (substrate use), 9 hr [2]: 0.36; 590 nm absorbance normalized to zero hour (substrate use), 10 hr [2]: 0.40; 590 nm absorbance normalized to zero hour (substrate use), 11 hr [2]: 0.41; 590 nm absorbance normalized to zero hour (substrate use), 9 hr [3]: 0.36; 590 nm absorbance normalized to zero hour (substrate use), 10 hr [3]: 0.40; 590 nm absorbance normalized to zero hour (substrate use), 11 hr [3]: 0.41
O=c1[nH]cnc2c1ncn2[C@@H]1O[C@H](CO)[C@@H](O)[C@H]1O [Inosine] | 3.56 | 5.67 | 2.78 | 4.11 | 2.23 | 4.46 | 6.41 | 6.92 | 5.14 | 3.56 | 4.02 | 6.19 | 1.16 | 1.78 | 2.23 | 2.45 | 3.06 | 3.30 | 3.54 | 3.88 | 590 nm absorbance normalized to zero hour (substrate use), 1 hr [4]: 1.16; 590 nm absorbance normalized to zero hour (substrate use), 2 hr [4]: 1.78; 590 nm absorbance normalized to zero hour (substrate use), 3 hr [4]: 2.23; 590 nm absorbance normalized to zero hour (substrate use), 4 hr [4]: 2.45; 590 nm absorbance normalized to zero hour (substrate use), 5 hr [4]: 3.06; 590 nm absorbance normalized to zero hour (substrate use), 6 hr [4]: 3.30; 590 nm absorbance normalized to zero hour (substrate use), 7 hr [4]: 3.54; 590 nm absorbance normalized to zero hour (substrate use), 8 hr [4]: 3.88; 590 nm absorbance normalized to zero hour (substrate use), 9 hr [4]: 4.33; 590 nm absorbance normalized to zero hour (substrate use), 10 hr [4]: 3.83; 590 nm absorbance normalized to zero hour (substrate use), 11 hr [4]: 4.20; 590 nm absorbance normalized to zero hour (substrate use), 9 hr [3]: 4.33; 590 nm absorbance normalized to zero hour (substrate use), 10 hr [3]: 3.83; 590 nm absorbance normalized to zero hour (substrate use), 11 hr [3]: 4.20
O=C[C@H](O)[C@@H](O)[C@@H](O)CO [L-Arabinose] | 1.72 | 2.30 | 2.99 | 3.04 | 2.95 | 3.74 | 4.05 | 4.01 | 4.09 | 1.72 | 3.33 | 3.87 | 1.79 | 2.45 | 3.01 | 3.10 | 3.49 | 3.66 | 3.82 | 4.01 | 590 nm absorbance normalized to zero hour (substrate use), 1 hr [4]: 1.79; 590 nm absorbance normalized to zero hour (substrate use), 2 hr [4]: 2.45; 590 nm absorbance normalized to zero hour (substrate use), 3 hr [4]: 3.01; 590 nm absorbance normalized to zero hour (substrate use), 4 hr [4]: 3.10; 590 nm absorbance normalized to zero hour (substrate use), 5 hr [4]: 3.49; 590 nm absorbance normalized to zero hour (substrate use), 6 hr [4]: 3.66; 590 nm absorbance normalized to zero hour (substrate use), 7 hr [4]: 3.82; 590 nm absorbance normalized to zero hour (substrate use), 8 hr [4]: 4.01; 590 nm absorbance normalized to zero hour (substrate use), 9 hr [4]: 4.41; 590 nm absorbance normalized to zero hour (substrate use), 10 hr [4]: 4.50; 590 nm absorbance normalized to zero hour (substrate use), 11 hr [4]: 4.78; 590 nm absorbance normalized to zero hour (substrate use), 9 hr [3]: 4.41; 590 nm absorbance normalized to zero hour (substrate use), 10 hr [3]: 4.50; 590 nm absorbance normalized to zero hour (substrate use), 11 hr [3]: 4.78
